Test results reported in patent US10322112B2, “Compound combinations for attenuation of bacterial virulence” (priority 2016, dated 2019).
Entries after “also recorded” stand apart in the source; their conditions may differ.

What was measured:
P. aeruginosa (PAO1) [1] = experiment: Elastase B assay; assay type: cell-based, Pseudomonas aeruginosa; conditions: MOPS Glutamate and Glucose media, complete or iron/phosphate depleted, 17 h, 100 μM (compounds 1, 2, 3), relative to DMSO
Protocol: A. Pyocyanin Assay Protocol. The amount of pyocyanin in P. aeruginosa culture supernatants was measured following a reported protocol (O'Loughlin et al., 2013) with modifications. A 10 mL overnight culture of P. aeruginosa PAO1 was grown for 16 h. DMSO stock solutions of test compounds (20 mM) were prepared, and 10 μL or 5 μL aliquots were added to sterile 15 mL borosilicate glass test tubes. An inoculating culture was prepared by diluting the overnight culture 1:100 into freshly prepared assay medium (see above), and 2 mL aliquots of this subculture were added to each test tube (0.5% DMSO, final). The cultures were grown for 17 h, and the final cell density measured by reading OD600. Relative pyocyanin levels were measured by first pelleting 1.5 mL of well-mixed culture at 4,000 g for 10 min, transferring 200 μL of the resulting supernatant to a clear, plastic 96-well microtiter plate, and reading absorbance at 695 nm. Media background absorbance (measured from a “no bacteria” control) was subtracted, the resulting values growth normalized by dividing by the final OD600378, and the data plotted relative to a DMSO-treated positive control. B. Rhamnolipid Assay Protocol. Rhamnolipid was quantified following a reported protocol (Koch et al., 1991) with modifications. Assay cultures were prepared and grown in an identical manner to the pyocyanin assay above. Aliquots of the final culture supernatant (1 mL) were transferred to 1 dram glass vials and extracted twice with 1 mL diethyl ether. The pooled organic fractions were evaporated to dryness, and the resulting residue reconstituted in 200 μL de-ionized water. […] After briefly cooling to room temperature, 200 μL of the resulting yellow to yellow-orange solution was transferred to a clear 96-well microtiter plate, and the absorbance at 421 nm measured. Media background absorbance (measured from a “no bacteria” control) was subtracted, the resulting values growth normalized by dividing by the final OD600, and the data plotted relative to a DMSO-treated positive control. […] The amount of elastase B in P. aeruginosa culture supernatants was measured following a reported protocol (Geske et al., 2007) with modifications. […] To quantify elastase B activity, the undigested elastin was pelleted by centrifugation of the assay plate at 1,500 g for 10 min, after which 100 μL of the supernatant was transferred to a new, clear 96-well plate, and the absorbance at 490 nm measured. Media background absorbance (measured from a “no bacteria” control) was subtracted, the resulting values growth normalized by dividing by the final OD600, and the data plotted relative to a DMSO-treated positive control.

LasR = biological target: T1, LasR (Pseudomonas aeruginosa, UniProt P25084); experiment: E. coli reporter gene primary agonism assay, LasR; assay type: cell-based; conditions: compounds at 100 mm; E. coli reporter strain JLD271/pJN105L/pSC11; 100 mm OdDHL = 100%; error ±10%
T1 construct: expressed in transfected cells; host or cells: E. coli JLD271
T1 sequence (P25084 whole entry): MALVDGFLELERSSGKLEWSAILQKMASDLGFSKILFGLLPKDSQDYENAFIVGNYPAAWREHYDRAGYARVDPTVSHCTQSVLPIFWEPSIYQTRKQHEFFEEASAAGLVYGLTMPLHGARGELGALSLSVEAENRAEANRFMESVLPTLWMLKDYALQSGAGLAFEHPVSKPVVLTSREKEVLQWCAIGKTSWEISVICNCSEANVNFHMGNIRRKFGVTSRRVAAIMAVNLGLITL
Protocol: Percent agonism of a given non-native inducer in a given bacterium and QS system receptor is measured with resepct to the maximum level of agonism (activation) by the native ligand of that receptor in the given bacterium. Percent antagonism is measured in competitive assays. The QS system of interest is activated to 100% with added or endogenous native ligand and the % antagonism of the non-native inducer is assessed with respect to 100% activation by the native inducer. The native ligand which induces LasR is OdDHL, which induces RhlR is BHL and which induces PqsR is PQS. As described herein and in cited references, assays for assessment of % agonism or % atangonism may be performed in E. coli systems (heterologous) or in the bacterium of interest, e.g., Pseudomonas. Dependent upon the assay system employed native ligand may be endogenously present or it may be exogenously supplied to the assay system. […] In antagonism assays using the native strains with functional QS systems, e.g., those of P. aeruginosa, endogenous native ligand is made in the system, so no native ligand is added. In native strains having one or more non-functional QS systems (mutant strains), e.g., P. aeruginosa mutants with non-functional QS systems, native ligand is added at about 10-100× the EC50 of the native ligand. In the agonism assay, native ligand is added as a control. Details of the assays are provided herein in Example 9 and in references cited in Example 9.

P. aeruginosa (PAO1) [2] = experiment: P. aeruginosa growth curves; assay type: cell-based, Pseudomonas aeruginosa
Protocol: FIGS. 2A-2D are wild-type P. aeruginosa growth curves in the presence of test compounds in various media. Related to FIGS. 3, 6A and 6B, 7A and 7B, and 12. (FIG. 2A) Growth curves in complete MOPS/Glutamate. (FIG. 2B) Growth curves in complete MOPS/Glucose. […] (FIG. 2D) Growth curves in SCFM2. P. aeruginosa (PAO1) was grown in a manner identical to the pyocyanin assay (see Experimental Procedures). At each time point, growth was measured by either reading OD600 (for MOPS media) or by serially diluting culture aliquots, plating on LB agar, and counting CFUs after overnight incubation at 37° C. (for SCFM2). Compound concentrations are 100 microM for compounds 1, 2, and 3 and 25 microM for compound 4 in all experiments unless noted otherwise. Error bars represent the standard error of at least two biological replicates (n≥2). BHL=N-butyryl L-homoserine lactone (Cayman Chemicals).
B. Bacterial Strains and Growth Conditions. Protocols for construction of genetic knockout strains are described below in Example 2. All reagents for bacterial culture were purchased from Sigma-Aldrich unless indicated otherwise. Bacteria were routinely cultured in Luria-Bertani broth (LB) at 37° C. with shaking at 200 rpm. Freezer stocks of bacterial strains were maintained at −80° C. in 1:1 LB:glycerol. Bacterial growth was routinely assessed by measuring the culture cell density according to absorbance at 600 nm (OD600341). Cell growth in simulated cystic fibrosis sputum medium (SCFM2) was determined by serially diluting assay cultures, plating on LB agar, and counting the number of colony forming units (CFU) appearing after overnight incubation at 37° C.

Structure (SMILES): O=C(N[C@H]1CCOC1=O)C1CCCC1 [compound 3]
- elastase B production, single compound screens (P. aeruginosa (PAO1) [1]): induced additional rhamnolipid and elastase B production
- Activation [%] LasR (LasR): −4%
- growth with other carbon sources (P. aeruginosa (PAO1) [2]; complete MOPS Glucose or LB broth, 100 μM compound 3): did not observe growth effects with other carbon sources
- growth in MOPS Glutamate (P. aeruginosa (PAO1) [2]; complete MOPS Glutamate, 100 μM): growth delay; also recorded: delayed P. aeruginosa growth in MOPS Glutamate
